# From PubChem BioAssay (NCI)
# Values joined by “and” are separate entries in the source; they are usually repeats but may differ in a detail not shown here. Equal values may be shown once.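 Values below derive from 48-hour exposures of cells grown in 96-well plates, with endpoints linearly interpolated between the two concentrations bracketing the appropriate inhibition level. GI50: concentration for 50% inhibition of growth. TGI is the concentration that stops growth completely.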 Where a SMILES comes first, the peptide text is derived from it. The star is where a group is joined. Trt = c1ccc(C(c2ccccc2)(c2ccccc2)*)cc1; Cbz = O=C(OCc1ccccc1)*
# Key:
# Assay in all cases: NCI tumour cell line growth inhibition, 48 h
# SN12C renal = system: SN12C renal
# M14 melanoma = system: M14 melanoma
# KM12 colon = system: KM12 colon
# A549 NSCLC = system: A549 NSCLC
# A498 renal = system: A498 renal
# RXF 393 renal = system: RXF 393 renal
# OVCAR-5 ovarian = system: OVCAR-5 ovarian
# NCI-H522 lung = system: NCI-H522 lung
# DU-145 prostate = system: DU-145 prostate
# MCF7 breast = system: MCF7 breast
SMILES,TGI (SN12C renal),TGI (M14 melanoma) [µM],TGI (KM12 colon) [µM],TGI (A549 NSCLC),TGI (A498 renal) [µM],TGI (RXF 393 renal),TGI (OVCAR-5 ovarian) [µM],TGI (NCI-H522 lung),GI50 (M14 melanoma) [µM],GI50 (KM12 colon) [µM],GI50 (OVCAR-5 ovarian),GI50 (A549 NSCLC),GI50 (DU-145 prostate) [µM],TGI (DU-145 prostate),GI50 (MCF7 breast) [µM],TGI (MCF7 breast) [µM],GI50 (SN12C renal),GI50 (A498 renal) [µM],GI50 (NCI-H522 lung),GI50 (RXF 393 renal) [µM]
CC1(C)CCC(Sc2ccccc2)O1 (stereo not given),> 100 µM,> 100,> 100,> 100 µM,> 100,> 100 µM,–,–,–,–,–,–,–,–,–,–,–,–,–,–
Cc1ccc(NC(=O)CCCC(=O)CC(=O)c2ccc(Br)cc2)cc1,> 100 µM,> 100,> 100,> 100 µM,> 100,> 100 µM,> 100,> 100 µM,–,–,–,–,–,–,–,–,–,–,–,–
COc1cccc(/C=C/C(=O)c2ccc3cc(OC)ccc3c2)c1,–,41.3,22.9,49.4 µM,–,–,25.5,–,13.6,9.91,11.1 µM,15.5 µM,8.54,17.5 µM,15.4,> 50,–,–,–,–
COC(=O)CCSC(=O)Nc1ccc(N=Nc2ccccc2)cc1,> 100 µM,> 100,> 100,> 100 µM,62.1,> 100 µM,> 100,–,–,–,–,–,–,–,–,–,–,–,–,–
Cc1ccc(C(=O)CC2(O)C(=O)Nc3c(C)cc(Cl)cc32)cc1 (stereo not given),> 100 µM,> 100,> 100,> 100 µM,–,> 100 µM,> 100,> 100 µM,–,–,–,–,–,–,–,–,–,–,–,–
COC(=O)C(CO)NC(=O)C(CSC(c1ccccc1)(c1ccccc1)c1ccccc1)NC(=O)OCc1ccccc1 (stereo not given) (Cbz-Cys(Trt)-Ser-OMe; configuration not given here),27.3 µM,44,31.3,> 48.5 µM,–,32.5 µM,35.3,34.3 µM,–,–,–,–,–,43.4 µM,–,> 59.1,–,–,–,–
Cn1c(CBr)nc2c1C(=O)c1nc(CBr)[nH]c(=O)c1C2=O,> 100 µM,> 100,–,> 100 µM,> 100,> 100 µM,–,> 100 µM,–,–,–,–,–,–,–,–,–,–,–,–
COc1cc[c]([Sn]([c]2ccc(OC)cc2)([c]2ccc(OC)cc2)[c]2ccc(OC)cc2)cc1,> 100 µM,36,–,> 100 µM,76.3,–,> 100,–,16.7,–,33.3 µM,25.9 µM,–,–,–,–,> 100 µM,14.2,–,–
CCCNC(=O)Nc1c([N+](=O)[O-])cc(C(F)(F)F)cc1[N+](=O)[O-],–,> 100,> 100,> 100 µM,> 100,76.1 µM,> 100,97.5 µM,–,–,–,–,–,–,–,–,–,–,–,–
Nc1nnc2c(-c3ccccc3)[nH]nc2n1,> 100 µM,> 100,> 100,> 100 µM,> 100,> 100 µM,> 100,> 100 µM,–,–,–,–,–,–,–,–,–,–,–,–
CCN1CCN(c2nc(C)cc(N(CCCNc3ccnc4cc(Cl)ccc34)Cc3ccc4c(c3)OCO4)n2)CC1,5.55 µM,3.38,10.8,7.42 µM,4.23,3.12 µM,7.77,3.39 µM,1.8,2.42,2.57 µM,1.97 µM,–,–,1.58,10.2,2.03 µM,1.38,1.66 µM,1.54
N#CCCn1[nH]c(=O)c(Cl)c(Cl)c1=O,32.5 µM,–,32.1,59.4 µM,41.2,32.2 µM,32.8,41.3 µM,–,–,–,–,–,–,–,–,–,–,–,–
COc1cc(-c2cc(/C=C/C(=O)c3ccc(F)c(F)c3)[nH]n2)cc(OC)c1OC,25.5 µM,11.9,11.4,9.9 µM,7.13,6.34 µM,33.8,4.48 µM,2.7,3.06,4.49 µM,2.43 µM,–,–,3.2,12.3,3.37 µM,2.11,1.57 µM,2.05
NC(=O)c1ccc2c(c1)-c1nc-2nc2[n-]c(nc3nc(nc4[n-]c(n1)c1ccc(C(N)=O)cc41)-c1ccc(C(N)=O)cc1-3)c1ccc(C(N)=O)cc21.[Co+2],> 50 µM,> 50,> 50,> 50 µM,> 50,–,> 50,> 50 µM,26,> 50,> 50 µM,> 50 µM,–,–,–,–,> 50 µM,> 50,> 50 µM,–
CN(C)CCNC(=O)c1cccc2c1nc(-c1ccc(F)cc1)c1ccccc12,16 µM,18.7,19.3,13.8 µM,16.2,12 µM,16.7,–,–,–,–,–,–,–,–,–,–,–,–,–
C[C@H]1CC[P+](Cc2ccccc2)(c2ccccc2)C1 (stereo not given in full),> 100 µM,> 100,> 100,> 100 µM,> 100,> 100 µM,> 100,> 100 µM,–,–,–,–,–,–,–,–,–,–,–,–
COC1=C(N)C(=O)c2nc(-c3nc(C(=O)O)c(C)c(-c4ccc(OC)c(OC)c4O)c3N)ccc2C1=O,0.00884 µM and 0.0161 µM,–,–,0.00428 µM and 0.0325 µM and 0.0216 µM,–,15 nM [middle of 4 runs],–,0.0214 µM and < 0.0111 µM,–,–,0.00332 µM and 0.00352 µM and 0.0143 µM,0.00135 µM and 0.00894 µM,–,0.0409 µM and 0.0193 µM,–,–,0.00175 µM and 0.0149 µM,0.00128,0.000527 µM and 0.00336 µM and < 0.01 µM,–
COc1ccc(-c2cc(=O)c3c(O)c(OC)c(OC)c(OC)c3o2)cc1OC,> 100 µM,> 100,> 100,> 100 µM,> 100,–,> 100,43.9 µM,–,–,–,–,–,> 100 µM,–,> 100,–,–,–,–
COC(=O)C(=O)Cc1nc2ccccc2s1,> 100 µM,> 100,–,> 100 µM,> 100,> 100 µM,> 100,> 100 µM,–,–,–,–,–,–,–,–,–,–,–,–
O=C1C(c2ccccc2)=C(c2ccccc2)C(c2ccc(Cc3ccc(C4=C(c5ccccc5)C(=O)C(c5ccccc5)=C4c4ccccc4)cc3)cc2)=C1c1ccccc1,–,–,> 100,> 100 µM,> 100,> 100 µM,> 100,> 100 µM,–,–,–,–,–,–,–,–,–,–,–,–
Cc1nc(N)nc(N)c1CCCCc1ccc(N)cc1,16.9 µM,18.4,21.7,16.8 µM,–,–,23,16 µM,–,–,–,–,–,–,–,–,–,–,–,–
